Drawing on US11780826B2 (Amgen Inc., priority 2017, dated 2023), this text covers AC1.4 for 27 compounds.

Structures are written as SMILES.

This test relates to Bovine cardiac myofibrils. As to the kind of experiment: In vitro model of dose-dependent myofibril ATPase modulation (AC1.4, pyruvate kinase/lactate dehydrogenase-coupled ATPase assay at pCa25). Type of test: biochemical. As to conditions: concentration at which ATPase activity was 1.4-fold higher than the bottom of the dose curve, mean of a minimum of two independent tests. A digest of the protocol:
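Coupled-enzyme ATPase on bovine heart myofibrils, 1 mM ATP, EGTA/CaCl2 buffered; 340 nm readout.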
The compound `CS(=O)(=O)c1ccc(NCCO)c(C(=O)N2CCC[C@@H]2C(=O)N[C@@H](c2ccc(C(F)(F)F)cc2F)C2CC2)c1` [Example 154, N-((R)-cyclopropyl(2-fluoro-4-(trifluoromethyl)phenyl)methyl)-1-(2-((2-hydroxyethyl)amino)-5-(methylsulfonyl)benzoyl)-D-prolinamide] had an AC1.4 of 0.2715 µM. `CCNc1ccc(C)cc1C(=O)N1C[C@H](O)C[C@@H]1C(=O)N[C@@H](c1cc(F)c(Cl)cc1F)C1COC1` [Example 34, (4R)-N-((R)-(4-chloro-2,5-difluorophenyl)(3-oxetanyl)methyl)-1-(2-(ethylamino)-5-methylbenzoyl)-4-hydroxy-D-prolinamide] gave an AC1.4 of 0.0361 µM. Compound `CN(C)S(=O)(=O)c1cccc(C(=O)N2CCC[C@@H]2C(=O)NCc2ccc(Cl)c(F)c2)c1` [Example 303, N-(4-chloro-3-fluorobenzyl)-1-(3-(dimethylsulfamoyl)benzoyl)-D-prolinamide] yielded an AC1.4 of 0.7956 µM. With `CC(C)[C@@H](NC(=O)[C@H]1CCCN1C(=O)[C@H]1CCCN(S(=O)(=O)N2CC(C#N)C2)C1)c1ccc(C(F)(F)F)cc1F` [Example 9, 1-(((3S)-1-((3-cyano-1-azetidinyl)sulfonyl)-3-piperidinyl)carbonyl)-N-((1R)-1-(2-fluoro-4-(trifluoromethyl)phenyl)-2-methylpropyl)-D-prolinamide], the AC1.4 amounted to 0.01995 µM. `N#CC1CN(S(=O)(=O)N2CCC[C@H](C(=O)N3CCC[C@@H]3C(=O)NCc3ccc(F)c(F)c3)C2)C1` [Example 221, 1-(((3S)-1-((3-cyano-1-azetidinyl)sulfonyl)-3-piperidinyl)carbonyl)-N-(3,4-difluorobenzyl)-D-prolinamide] returned an AC1.4 of 0.4821 µM.

Take `O=C(N[C@@H](c1ccc(C(F)(F)F)cc1F)C1COC1)[C@H]1C[C@H]2C[C@H]2N1C(=O)c1ccnc(C(F)(F)F)c1` [Example 392, (1R,3R,5R)-N-((R)-(2-fluoro-4-(trifluoromethyl)phenyl)(3-oxetanyl)methyl)-2-((2-(trifluoromethyl)-4-pyridinyl)carbonyl)-2-azabicyclo[3.1.0]hexane-3-carboxamide]: the AC1.4 stood at 1.268 µM. Take `O=C(NCc1ccc(C(F)(F)F)cc1)[C@H]1CCCN1C(=O)[C@H]1CCCN(S(=O)(=O)N2CC(n3cccn3)C2)C1` [Example 582, 1-(((3S)-1-((3-(1H-pyrazol-1-yl)-1-azetidinyl)sulfonyl)-3-piperidinyl)carbonyl)-N-(4-(trifluoromethyl)benzyl)-D-prolinamide]: the AC1.4 is 3.371 µM. As for `O=C(N[C@@H](c1ccc(C(F)(F)F)cc1F)C1CC1)[C@H]1C[C@H]2C[C@H]2N1C(=O)c1ccccc1NC(=O)C(F)(F)F` [Example 553, (1R,3R,5R)-N-((R)-cyclopropyl(2-fluoro-4-(trifluoromethyl)phenyl)methyl)-2-(2-(2,2,2-trifluoroacetamido)benzoyl)-2-azabicyclo[3.1.0]hexane-3-carboxamide], the figure is 2.873 µM; as for `N#CC1CN(S(=O)(=O)c2cccc(C(=O)N3CCC[C@@H]3C(=O)NCc3ccc(Cl)c(F)c3)c2)C1` [Example 64, N-(4-chloro-3-fluorobenzyl)-1-((3-((3-cyano-1-azetidinyl)sulfonyl)phenyl)carbonyl)-D-prolinamide], 0.0744 µM; as for `CN(C)S(=O)(=O)c1cccc(C(=O)N2CCC[C@@H]2C(=O)N[C@H](c2ccc(C(F)(F)F)cc2F)C2CC2)c1` [Example 802, N-((S)-cyclopropyl(2-fluoro-4-(trifluoromethyl)phenyl)methyl)-1-(3-(dimethylsulfamoyl)benzoyl)-D-prolinamide], 9.6005 µM. `CS(=O)(=O)c1ccc(C(=O)N2CCCC[C@@H]2C(=O)N[C@@H](c2cc(F)c(Cl)cc2F)C2CC2)cn1` [Example 125, (2R)-N-((R)-(4-chloro-2,5-difluorophenyl)(cyclopropyl)methyl)-1-((6-(methylsulfonyl)-3-pyridinyl)carbonyl)-2-piperidinecarboxamide] returned an AC1.4 of 0.2026 µM. The same measure for `O=C(NCc1ccc(C(F)(F)F)cc1F)[C@H]1CCCN1C(=O)[C@H]1CCCN(S(=O)(=O)N2CC(OCCF)C2)C1` [Example 237, 1-(((3S)-1-((3-(2-fluoroethoxy)-1-azetidinyl)sulfonyl)-3-piperidinyl)carbonyl)-N-(2-fluoro-4-(trifluoromethyl)benzyl)-D-prolinamide]: 0.5593 µM.

Compound `O=C(N[C@@H](c1ccc(C(F)(F)F)c(F)c1)C1CC1)[C@H]1C[C@H]2C[C@H]2N1C(=O)c1ccnc(S(=O)(=O)C2CC2)c1` [Example 686, (1R,3R,5R)-N-((R)-cyclopropyl(3-fluoro-4-(trifluoromethyl)phenyl)methyl)-2-((2-(cyclopropylsulfonyl)-4-pyridinyl)carbonyl)-2-azabicyclo[3.1.0]hexane-3-carboxamide] gave an AC1.4 of 5.284 µM.

For the compound `CC(NC(=O)[C@H]1CCCN1C(=O)[C@H]1CCCN(S(=O)(=O)N2CC(C#N)C2)C1)c1ccc(OC(F)F)cc1` (stereo partly drawn) [Example 594, (2R)-1-((S)-1-((3-cyanoazetidin-1-yl)sulfonyl)piperidine-3-carbonyl)-N-(1-(4-(difluoromethoxy)phenyl)ethyl)pyrrolidine-2-carboxamide], the AC1.4 amounted to 3.505 µM. For `CN(C)S(=O)(=O)c1cccc(C(=O)N2CCCCC2C(=O)NCc2ccc(C(F)(F)F)cc2)c1` (stereo not drawn) [Example 677, 1-(3-(N,N-dimethylsulfamoyl)benzoyl)-N-(4-(trifluoromethyl)benzyl)piperidine-2-carboxamide], the AC1.4 came out at 4.987 µM. In turn, `CC1(O)CN(S(=O)(=O)N2CCC[C@H](C(=O)N3C[C@@H](F)C[C@@H]3C(=O)NCc3ccc(C(F)(F)F)cc3)C2)C1` [Example 683, (4S)-4-fluoro-1-(((3S)-1-((3-hydroxy-3-methyl-1-azetidinyl)sulfonyl)-3-piperidinyl)carbonyl)-N-(4-(trifluoromethyl)benzyl)-D-prolinamide] had an AC1.4 of 5.096 µM.

The compound `Cc1ccc(F)c(CNC(=O)[C@H]2CCCN2C(=O)[C@H]2CCCN(S(=O)(=O)N3CC(C#N)C3)C2)c1` [Example 642, 1-(((3S)-1-((3-cyano-1-azetidinyl)sulfonyl)-3-piperidinyl)carbonyl)-N-(2-fluoro-5-methylbenzyl)-D-prolinamide] registered an AC1.4 of 4.2755 µM. Take `O=C(NCc1ccc(C(F)(F)F)cc1)[C@H]1CCCN1C(=O)[C@H]1CCCN(S(=O)(=O)N2CC(n3ccnc3)C2)C1` [Example 562, 1-(((3S)-1-((3-(1H-imidazol-1-yl)-1-azetidinyl)sulfonyl)-3-piperidinyl)carbonyl)-N-(4-(trifluoromethyl)benzyl)-D-prolinamide]: the AC1.4 amounted to 3.025 µM. Compound `N#CC1CN(S(=O)(=O)N2CCC[C@H](C(=O)N3CCC[C@@H]3C(=O)NCc3cccc(OC(F)F)c3)C2)C1` [Example 781, 1-(((3S)-1-((3-cyano-1-azetidinyl)sulfonyl)-3-piperidinyl)carbonyl)-N-(3-(difluoromethoxy)benzyl)-D-prolinamide] showed an AC1.4 of 8.59 µM.

The compound `CS(=O)(=O)c1cccc(C(=O)N2CCC[C@@H]2C(=O)N[C@@H](c2ccc(C(F)(F)F)cc2F)C2(F)COC2)c1` [Example 673, N-((S)-(3-fluoro-3-oxetanyl)(2-fluoro-4-(trifluoromethyl)phenyl)methyl)-1-(3-(methylsulfonyl)benzoyl)-D-prolinamide] returned an AC1.4 of 4.897 µM.

With `O=C(NCc1ccc(C(F)(F)F)cc1)[C@H]1CCCN1C(=O)[C@H]1CCCN(S(=O)(=O)N2CCC2c2ccc(Cl)cc2)C1` (stereo partly drawn) [Example 697, (2R)-1-((3S)-1-((2-(4-chlorophenyl)azetidin-1-yl)sulfonyl)piperidine-3-carbonyl)-N-(4-(trifluoromethyl)benzyl)pyrrolidine-2-carboxamide], the AC1.4 stood at 5.5445 µM.

Take `CCNc1ccccc1C(=O)N1[C@@H](C(=O)N[C@@H](c2ccc(C(F)(F)F)cc2F)C2COC2)C[C@H]2C[C@H]21` [Example 217, (1R,3R,5R)-2-(2-(ethylamrno)benzoyl)-N-((R)-(2-fluoro-4-(trifluoromethyl)phenyl)(3-oxetanyl)methyl)-2-azabicyclo[3.1.0]hexane-3-carboxamide]: the AC1.4 came out at 0.4751 µM.

`N#CC1CN(S(=O)(=O)N2CCC[C@H](C(=O)N3CCC[C@@H]3C(=O)N[C@H](CO)c3ccc(Cl)cc3)C2)C1` [Example 169, N-((1S)-1-(4-chlorophenyl)-2-hydroxyethyl)-1-(((3S)-1-((3-cyano-1-azetidinyl)sulfonyl)-3-piperidinyl)carbonyl)-D-prolinamide]: the AC1.4 was found to be 0.2892 µM. `CC[C@@H](NC(=O)[C@H]1CCCN1C(=O)c1cccc(S(=O)(=O)N2CC(C#N)C2)c1)c1ccc(C(F)(F)F)cc1` [Example 3, 1-(3-((3-cyano-1-azetidinyl)sulfonyl)benzoyl)-N-((1R)-1-(4-(trifluoromethyl)phenyl)propyl)-D-prolinamide]: the AC1.4 is 0.01635 µM.

For `CS(=O)(=O)c1cccc(C(=O)N2C[C@@H](F)C[C@@H]2C(=O)N[C@@H](c2cc(F)c(Cl)cc2F)C2COC2)c1` [Example 141, (4S)-N-((R)-(4-chloro-2,5-difluorophenyl)(3-oxetanyl)methyl)-4-fluoro-1-(3-(methylsulfonyl)benzoyl)-D-prolinamide], the AC1.4 was found to be 0.2366 µM. As for `N#Cc1ccc(CNC(=O)[C@H]2CCCN2C(=O)c2cccc(S(=O)(=O)N3CC(C#N)C3)c2)cc1` [Example 250, 1-((3-((3-cyano-1-azetidinyl)sulfonyl)phenyl)carbonyl)-N-(4-cyanobenzyl)-D-prolinamide], the figure is 0.5978 µM; as for `N#CC1CN(S(=O)(=O)N2C[C@H]3C[C@@H]2[C@H](C(=O)N2CCC[C@@H]2C(=O)NCc2ccc(C(F)(F)F)cc2)C3)C1` [Example 172, 1-(((1R,4R,6R)-2-((3-cyano-1-azetidinyl)sulfonyl)-2-azabicyclo[2.2.1]hept-6-yl)carbonyl)-N-(4-(trifluoromethyl)benzyl)-D-prolinamide], 0.2959 µM.
